# Data published in patent US7407775B2, “Method for identifying Listeria monocytogenes and culture medium” (Biomerieux S.A., priority 2000, dated 2008).
# Columns and labels:
# Assay in all cases: Experiment 3: detecting an esterase activity in liquid medium (API-type strips)
# Assay type in all cases: cell-based
# Parameters in all cases: key: —: the symbol “-” corresponds to the absence of color or intensity; 0 corresponds to no activity; 0.1 corresponds to a trace of color; 0.5 corresponds to very pale coloration; 1 corresponds to clear but low-intensity coloration; 1.5 corresponds to a degree of coloration intermediate between scores 1 and 2; 2 corresponds to clear coloration of moderate intensity; 2.5 corresponds to a degree of coloration intermediate between scores 2 and 3; 3 corresponds to intense coloration; 3.5 corresponds to a degree of coloration intermediate between scores 3 and 4; 4 corresponds to very intense coloration
# Details in all cases: 37° C.
# [1] = tested on: Listeria grayi ATCC 19120
# Method: (§1) In Table 1 above, as in the following Tables, C represents the color of the colonies after incubation, I represents the intensity of the color, and the symbol “-” corresponds to the absence of color or intensity; finally, IT defines the incubation time. It should be noted that the intensity of the color is scored on an arbitrary scale but one which is consistent for all the biological specimens and media tested. This scale is valid for this experiment as well as all those that follow. It can be defined in the following way: • 0 corresponds to no activity, • 0.1 corresponds to a trace of color, • 0.5 corresponds to very pale coloration, • 1 corresponds to clear but low-intensity coloration, • 1.5 corresponds to a degree of coloration intermediate between scores 1 and 2, • 2 corresponds to clear coloration of moderate intensity, • 2.5 corresponds to a degree of coloration intermediate between scores 2 and 3, • 3 corresponds to intense coloration, • 3.5 corresponds to a degree of coloration intermediate between scores 3 and 4, • 4 corresponds to very intense coloration.
# (§2) These substrates were lyophilized in the wells of API-type strips (Registered Trademark). Before use, the substrates contained in the wells were resuspended in an agar-free Columbia-type inoculation medium. These wells were then inoculated with a suspension (density=2 McFarland) of microorganisms taken from either the Applicant's own collection or the ATCC. The strips were incubated for 8 hours at 37° C. The colonies which grew were examined by eye after 4, 6 and 8 hours of incubation.
# (§3) The intensity of the color of the colonies was recorded.
# Listeria innocua 166 = tested on: Listeria innocua 166
# Method: as §1, §2, §3
# Listeria innocua 171 = tested on: Listeria innocua 171
# Method: as §1, §2, §3
# Listeria ivanovii 018 = tested on: Listeria ivanovii 018
# Method: as §1, §2, §3
# [2] = tested on: Listeria monocytogenes ATCC 19115
# Method: as §1, §2, §3
# Listeria seeligeri 011 = tested on: Listeria seeligeri 011
# Method: as §1, §2, §3
# Listeria welshimeri 023 = tested on: Listeria welshimeri 023
# Method: as §1, §2, §3
SMILES,I (intensity of the color) ([1]; IT 4 h),I (intensity of the color) ([1]; IT 6 h),I (intensity of the color) ([1]; IT 8 h),I (intensity of the color) (Listeria innocua 166; IT 4 h),I (intensity of the color) (Listeria innocua 166; IT 6 h),I (intensity of the color) (Listeria innocua 166; IT 8 h),I (intensity of the color) (Listeria innocua 171; IT 4 h),I (intensity of the color) (Listeria innocua 171; IT 6 h),I (intensity of the color) (Listeria innocua 171; IT 8 h),I (intensity of the color) (Listeria ivanovii 018; IT 4 h),I (intensity of the color) (Listeria ivanovii 018; IT 6 h),I (intensity of the color) (Listeria ivanovii 018; IT 8 h),I (intensity of the color) ([2]; IT 4 h),I (intensity of the color) ([2]; IT 6 h),I (intensity of the color) ([2]; IT 8 h),I (intensity of the color) (Listeria seeligeri 011; IT 4 h),I (intensity of the color) (Listeria seeligeri 011; IT 6 h),I (intensity of the color) (Listeria seeligeri 011; IT 8 h),I (intensity of the color) (Listeria welshimeri 023; IT 4 h),I (intensity of the color) (Listeria welshimeri 023; IT 6 h),other results
"CCCCCCCC(=O)Oc1c[nH]c2cc(Cl)c(Br)cc12 [Magenta-C8, 5-Bromo-6-chloro-3-indolyl octanoate]",—,—,—,—,—,—,—,—,—,—,—,—,—,—,0.5,—,—,—,—,—,I (intensity of the color) (Listeria welshimeri 023; IT 8 h): —
"CCCCCCCC(=O)Oc1c[nH]c2ccc(Br)c(Cl)c12 [X-C8, 5-Bromo-4-chloro-3-indolyl octanoate]",—,—,—,—,—,—,—,—,—,—,—,—,—,1,1.5,—,0.5,0.5,—,—,I (intensity of the color) (Listeria welshimeri 023; IT 8 h): —
"CCCCCCCC(=O)Oc1c[nH]c2cc(Cl)ccc12 [Pink-C8, 6-Chloro-3-indolyl octanoate]",—,—,—,—,—,—,—,—,—,—,—,—,—,—,—,—,—,—,—,—,I (intensity of the color) (Listeria welshimeri 023; IT 8 h): —
